These results are taken from ChEMBL document CHEMBL1201862, “PubChem BioAssay data set” (2004).

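48-hour exposure; five concentrations; linearly interpolated endpoints. GI50 marks 50% less growth.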 Active and inactive are the calls of the source. Rule as the data show it: active = GI50 up to about 1.1 µM and inactive = higher.

Among the test systems are BT-549; NCI-H460; A549; 786-0; MOLT-4; A498; HCC 2998; OVCAR-4; M14; NCI-H23; MDA-N; SK-MEL-28; U-251; LOX IMVI; HCT-116; Malme-3M; NCI-H522; TK-10; HT-29; OVCAR-8.
Common to all, as to assay: inhibition of tumour cell growth, NCI panel, 48 h

Turning to `CCc1ccccc1NC(=O)/C=C/c1ccccc1`, the GI50 with BT-549, in the experiment on NCI-H460, in the experiment on A549, in the experiment on 786-0, in the experiment on MOLT-4 and in the experiment with A498 was > 100 µM (inactive) each time. In addition, the GI50 in the experiment on HCC 2998, with OVCAR-4, in the experiment on M14, with NCI-H23, with MDA-N and in the experiment on SK-MEL-28 was > 100 µM (inactive) in each case. The GI50 is 85.9 µM (inactive) in the experiment on U-251; > 100 µM (inactive) in the experiment with LOX IMVI; > 100 µM (inactive) in the experiment with HCT-116; > 100 µM (inactive) in the experiment with Malme-3M; > 100 µM (inactive) in the experiment with NCI-H522; > 100 µM (inactive) with TK-10. In addition, the GI50 in the experiment with HT-29 and with OVCAR-8 was > 100 µM (inactive) throughout.

For `C=C(C(=O)OC)N1C(=O)CC(C)C1=O` (stereo not given), the GI50 with BT-549 is 14.6 µM (inactive); in the experiment with NCI-H460, 18.1 µM (inactive); in the experiment on A549, 20.9 µM (inactive); with 786-0, 10.7 µM (inactive); with MOLT-4 it was 3.33 µM (inactive); with A498, 20.7 µM (inactive). In addition, the GI50 in the experiment on HCC 2998 is 16.1 µM (inactive); in the experiment on OVCAR-4, 18.2 µM (inactive); in the experiment with M14, 13.7 µM (inactive); in the experiment on NCI-H23, 17.9 µM (inactive); in the experiment with MDA-N, 14.2 µM (inactive); with SK-MEL-28, 9.55 µM (inactive). Moreover, the GI50 was 17.4 µM (inactive) in the experiment with U-251; 7.14 µM (inactive) in the experiment on LOX IMVI; 6.67 µM (inactive) in the experiment on HCT-116; 2.45 µM (inactive) with Malme-3M; 1.9 µM (inactive) in the experiment with NCI-H522; 6.79 µM (inactive) with TK-10. Also, the GI50 in the experiment with HT-29 is 10.7 µM (inactive); in the experiment on OVCAR-8 it was 15.3 µM (inactive).

As for `Cc1cn([C@@H]2C[C@H]2CO)c(=O)[nH]c1=O`, the GI50 with BT-549, with NCI-H460, in the experiment with A549, in the experiment with 786-0, with MOLT-4 and in the experiment on A498 was > 100 µM (inactive) each time. The GI50 in the experiment on HCC 2998, with OVCAR-4, in the experiment on M14, with NCI-H23, in the experiment on MDA-N and in the experiment with SK-MEL-28 was > 100 µM (inactive) throughout. For the same molecule, the GI50 in the experiment with U-251, in the experiment on LOX IMVI, with HCT-116, with Malme-3M, in the experiment on NCI-H522 and in the experiment on TK-10 was > 100 µM (inactive) in each case. The GI50 in the experiment with HT-29 and in the experiment with OVCAR-8 was > 100 µM (inactive) throughout.

`CCCCn1cnc2c(c(CC#N)nn2-c2ccccc2)c1=N`: the GI50 in the experiment on BT-549 was 37.8 µM (inactive); with NCI-H460, 39.9 µM (inactive); in the experiment with A549 it was 83.8 µM (inactive); with 786-0, 57.1 µM (inactive); with MOLT-4, 33.1 µM (inactive); in the experiment with A498 it was 24.5 µM (inactive). For the same molecule, the GI50 with HCC 2998 is 37.1 µM (inactive); with OVCAR-4, 29.8 µM (inactive); with M14 it was 53.2 µM (inactive); in the experiment with NCI-H23, 51.9 µM (inactive); with MDA-N, 38.1 µM (inactive); in the experiment on SK-MEL-28, 44.1 µM (inactive). In addition, the GI50 in the experiment on U-251 is 37.9 µM (inactive); with LOX IMVI, 39.3 µM (inactive); in the experiment on HCT-116 it was 48.6 µM (inactive); in the experiment on Malme-3M, 63.5 µM (inactive); in the experiment with NCI-H522 it was 43.1 µM (inactive); with TK-10, 64.7 µM (inactive). The figures for the GI50 with HT-29 and with OVCAR-8 were 33.4 µM (inactive) and 41.4 µM (inactive), respectively.

Consider `O=C(O)/C=N/NC(=S)NC1CCCCC1`, for which the GI50 in the experiment on BT-549, in the experiment on NCI-H460, with A549, in the experiment on 786-0, in the experiment on MOLT-4 and in the experiment on A498 was > 100 µM (inactive) each time. In addition, the GI50 in the experiment with HCC 2998, in the experiment with OVCAR-4, with M14, in the experiment on NCI-H23, in the experiment with MDA-N and in the experiment with SK-MEL-28 was > 100 µM (inactive) throughout. Moreover, the GI50 in the experiment with U-251, in the experiment with LOX IMVI, in the experiment with HCT-116, in the experiment on Malme-3M, in the experiment on NCI-H522 and in the experiment with TK-10 was > 100 µM (inactive) each time. Moreover, the GI50 in the experiment with HT-29 and in the experiment with OVCAR-8 was > 100 µM (inactive) each time.

In the case of `S=C1NNC(=S)NN1`, the GI50 in the experiment on BT-549 is 0.522 µM (active); with NCI-H460 it was > 1 µM (active); with A549, > 1 µM (active); in the experiment with 786-0 it was > 1 µM (active); in the experiment with MOLT-4, 0.258 µM (active); in the experiment on A498, > 1 µM (active). Further, the GI50 with HCC 2998 was > 1 µM (active); with OVCAR-4, > 1 µM (active); in the experiment with M14 it was 0.533 µM (active); with NCI-H23, 0.251 µM (active); in the experiment on MDA-N it was > 1 µM (active); with SK-MEL-28, > 1 µM (active). Besides, the GI50 with U-251 is 0.583 µM (active); in the experiment on LOX IMVI, 0.18 µM (active); in the experiment on HCT-116, 0.23 µM (active); in the experiment on Malme-3M, 0.594 µM (active); in the experiment with NCI-H522, 0.432 µM (active); in the experiment with TK-10 it was > 1 µM (active). Further, the GI50 was 0.23 µM (active) in the experiment on HT-29 and > 1 µM (active) with OVCAR-8.

Regarding `Fc1ccc2nc3n(c2c1)C(c1c(F)cccc1F)SC3` (stereo not given), the GI50 with BT-549 is 70 µM (inactive); with NCI-H460, 44 µM (inactive); in the experiment with A549, 58.3 µM (inactive); with 786-0, > 100 µM (inactive); with MOLT-4 it was 21.3 µM (inactive); in the experiment with A498, 65.5 µM (inactive). Besides, the GI50 in the experiment with HCC 2998 is > 100 µM (inactive); with OVCAR-4, 64.3 µM (inactive); in the experiment on M14, 49.1 µM (inactive); with NCI-H23 it was 55 µM (inactive); in the experiment with MDA-N it was 26.7 µM (inactive); in the experiment on SK-MEL-28, > 100 µM (inactive). Besides, the GI50 in the experiment with U-251 was 76.4 µM (inactive); in the experiment on LOX IMVI it was 50.7 µM (inactive); with HCT-116, 24.5 µM (inactive); with Malme-3M, > 100 µM (inactive); in the experiment on NCI-H522, 28.1 µM (inactive); with TK-10, 96.4 µM (inactive). Further, the GI50 in the experiment on HT-29 is 33.3 µM (inactive); in the experiment on OVCAR-8, 65.6 µM (inactive).
